Source: patent publication US10647713B2 (Nimbus Lakshmi, Inc., priority 2016, dated 2020)
pKd: −log10 of the molar value.

Biological target: human TYK2 (JH2domain-pseudokinase) (Homo sapiens (Human), UniProt P29597)
Assay: TYK2 JH2 Domain Binding Assay (KINOMEscan, DiscoveRx)
Details: 11-point dilution, duplicate
Description: Binding constants for compounds of the present invention against the JH2 domain were determined by the following protocol for a KINOMEscan® assay (DiscoveRx). A fusion protein of a partial length construct of human TYK2 (JH2domain-pseudokinase) (amino acids G556 to D888 based on reference sequence NP_003322.3) and the DNA binding domain of NFkB was expressed in transiently transfected HEK293 cells. From these HEK 293 cells, extracts were prepared in M-PER extraction buffer (Pierce) in the presence of Protease Inhibitor Cocktail Complete (Roche) and Phosphatase Inhibitor Cocktail Set II (Merck) per manufacturers' instructions. The TYK2 (JH2domain-pseudokinase) fusion protein was labeled with a chimeric double-stranded DNA tag containing the NFkB binding site (5′-GGGAATTCCC-3′) fused to an amplicon for qPCR readout, which was added directly to the expression extract (the final concentration of DNA-tag in the binding reaction is 0.1 nM).
Streptavidin-coated magnetic beads (Dynal M280) were treated with a biotinylated small molecule ligand for 30 minutes at room temperature to generate affinity resins the binding assays. The liganded beads were blocked with excess biotin and washed with blocking buffer (SeaBlock (Pierce), 1% BSA, 0.05% Tween 20, 1 mM DTT) to remove unbound ligand and to reduce nonspecific binding.
The binding reaction was assembled by combining 16 μl of DNA-tagged kinase extract, 3.8 μl liganded affinity beads, and 0.18 μl test compound (PBS/0.05% Tween 20/10 mM DTT/0.1% BSA/2 μg/ml sonicated salmon sperm DNA)]. Extracts were used directly in binding assays without any enzyme purification steps at a ≥10,000-fold overall stock dilution (final DNA-tagged enzyme concentration <0.1 nM). Extracts were loaded with DNA-tag and diluted into the binding reaction in a two step process. First extracts were diluted 1:100 in 1× binding buffer (PBS/0.05% Tween 20/10 mM DTT/0.1% BSA/2 μg/ml sonicated salmon sperm DNA) containing 10 nM DNA-tag. This dilution was allowed to equilibrate at room temperature for 15 minutes and then subsequently diluted 1:100 in 1× binding buffer. Test compounds were prepared as 111× stocks in 100% DMSO. Kds were determined using an 11-point 3-fold compound dilution series with three DMSO control points. All compounds for Kd measurements are distributed by acoustic transfer (non-contact dispensing) in 100% DMSO. The compounds were then diluted directly into the assays such that the final concentration of DMSO was 0.9%. All reactions performed in polypropylene 384-well plates. Each was a final volume of 0.02 mL. Assays were incubated with shaking for 1 hour at room temperature. Then the beads were pelleted and washed with wash buffer (1×PBS, 0.05% Tween 20) to remove displaced kinase and test compound. The washed based were re-suspended in elution buffer (1×PBS, 0.05% Tween 20, 0.5 μM non-biotinylated affinity ligand) and incubated at room temperature with shaking for 30 minutes. The kinase concentration in the eluates was measured by qPCR. qPCR reactions were assembled by adding 2.5 μL of kinase eluate to 7.5 μL of qPCR master mix containing 0.15 μM amplicon primers and 0.15 μM amplicon probe. The qPCR protocol consisted of a 10 minute hot start at 95° C., followed by 35 cycles of 95° C. for 15 seconds, 60° C. for 1 minute.
Test compounds were prepared as 111× stocks in 100% DMSO. Kds were determined using an 11-point 3-fold compound dilution series with three DMSO control points. All compounds for Kd measurements are distributed by acoustic transfer (non-contact dispensing) in 100% DMSO. The compounds were then diluted directly into the assays such that the final concentration of DMSO was 0.9%. The Kds were determined using a compound top concentration of 30,000 nM. Kd measurements were performed in duplicate.
Binding constants (Kds) were calculated with a standard dose-response curve using the Hill equation: […]
The Hill Slope was set to −1. […]

Sequence of human TYK2 (JH2domain-pseudokinase) (P29597 556-888): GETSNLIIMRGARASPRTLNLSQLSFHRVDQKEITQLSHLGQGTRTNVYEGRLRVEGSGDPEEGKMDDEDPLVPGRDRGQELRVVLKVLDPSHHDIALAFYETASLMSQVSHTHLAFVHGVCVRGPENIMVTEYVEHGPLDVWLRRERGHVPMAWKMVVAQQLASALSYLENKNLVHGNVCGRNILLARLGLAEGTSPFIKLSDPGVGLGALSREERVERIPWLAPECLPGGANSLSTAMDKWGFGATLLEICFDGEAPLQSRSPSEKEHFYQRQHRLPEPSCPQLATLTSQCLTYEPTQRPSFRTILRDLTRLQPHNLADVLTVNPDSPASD

How did the pKd turn out when `COc1c(Nc2cc(NC(=O)C3CC3)nc3[nH]c(C(F)F)nc23)cccc1-c1nnn(C)n1` [I-14, N-(2-(difluoromethyl)-7-((2-methoxy-3-(2-methyl-2H-tetrazol-5-yl)phenyl)amino)-3H-imidazo[4,5-b]pyridin-5-yl)cyclopropanecarboxamide] was run?
The pKd was 9.30 to 10.00.

`COc1cc(C(=O)N2CCOCC2)ccc1Nc1cc(NC(=O)C2CC2)nc2[nH]c(C(F)F)nc12` [I-15, N-(2-(difluoromethyl)-7-((2-methoxy-4-(morpholine-4-carbonyl)phenyl)amino)-3H-imidazo[4,5-b]pyridin-5-yl)cyclopropanecarboxamide] was tested. Which pKd did it give?
The pKd was 8.00 to 9.00.

`COc1cc(C(=O)N2CCC2)ccc1Nc1cc(NC(=O)C2CC2)nc2[nH]c(C(F)F)nc12` [I-16, N-(7-((4-(azetidine-1-carbonyl)-2-methoxyphenyl)amino)-2-(difluoromethyl)-3H-imidazo[4,5-b]pyridin-5-yl)cyclopropanecarboxamide] was tested. Which pKd did it give?
The pKd was 9.00 to 9.30.

How did the pKd turn out when `COc1c(Nc2cc(Nc3cccc(C#N)n3)nc3[nH]c(C(F)F)nc23)cccc1-c1nnn(C)n1` [I-17, 6-((2-(difluoromethyl)-7-((2-methoxy-3-(2-methyl-2H-tetrazol-5-yl)phenyl)amino)-3H-imidazo[4,5-b]pyridin-5-yl)amino)picolinonitrile] was run?
Its pKd is 9.30 to 10.00.

How did the pKd turn out when `COc1cc(N2CCCC2=O)ccc1Nc1cc(NC(=O)C2CC2)nc2[nH]c(C(F)F)nc12` [I-18] was run?
Its pKd is 8.00 to 9.00.

With `COc1c(Cl)cccc1Nc1cc(NC(=O)C2CC2)nc2[nH]c(C(F)F)nc12` [I-19, N-(7-((3-chloro-2-methoxyphenyl)amino)-2-(difluoromethyl)-3H-imidazo[4,5-b]pyridin-5-yl)cyclopropanecarboxamide] as the compound, how does the pKd read?
The pKd was under 8.00.

With `COc1c(F)cccc1Nc1cc(NC(=O)C2CC2)nc2[nH]c(C(F)F)nc12` [I-20, N-(2-(difluoromethyl)-7-((3-fluoro-2-methoxyphenyl)amino)-3H-imidazo[4,5-b]pyridin-5-yl)cyclopropanecarboxamide] as the compound, how does the pKd read?
Its pKd is under 8.00.

`COc1c(Nc2cc(Nc3cnc(C)c(C)n3)nc3[nH]c(C(F)F)nc23)cccc1-c1nnn(C)n1` [I-21, 2-(difluoromethyl)-N5-(5,6-dimethylpyrazin-2-yl)-N7-(2-methoxy-3-(2-methyl-2H-tetrazol-5-yl)phenyl)-3H-imidazo[4,5-b]pyridine-5,7-diamine] was tested. Which pKd did it give?
Its pKd is 9.00 to 9.30.

How did the pKd turn out when `COc1c(Nc2cc(Nc3ccc(N4CCC4)cn3)nc3[nH]c(C(F)F)nc23)cccc1-c1nnn(C)n1` [I-22, N5-(5-(azetidin-1-yl)pyridin-2-yl)-2-(difluoromethyl)-N7-(2-methoxy-3-(2-methyl-2H-tetrazol-5-yl)phenyl)-3H-imidazo[4,5-b]pyridine-5,7-diamine] was run?
Its pKd is 8.00 to 9.00.

How did the pKd turn out when `COc1c(Nc2cc(Nc3ccc(N4CC(O)C4)cn3)nc3[nH]c(C(F)F)nc23)cccc1-c1nnn(C)n1` [I-23, I-(6-((2-(difluoromethyl)-7-((2-methoxy-3-(2-methyl-2H-tetrazol-5-yl)phenyl)amino)-3H-imidazo[4,5-b]pyridin-5-yl)amino)pyridin-3-yl)azetidin-3-ol] was run?
Its pKd is 8.00 to 9.00.

`COc1c(Nc2cc(Nc3cccc(C#N)n3)nc3[nH]c(C(F)F)nc23)cccc1-c1ccn(C)n1` [I-25, 6-((2-(difluoromethyl)-7-((2-methoxy-3-(1-methyl-1H-pyrazol-3-yl)phenyl)amino)-3H-imidazo[4,5-b]pyridin-5-yl)amino)picolinonitrile] was tested. Which pKd did it give?
The pKd was 9.30 to 10.00.

With `COc1c(Nc2cc(Nc3ccc(C)nn3)nc3[nH]c(C(F)F)nc23)cccc1-c1ccn(C)n1` [I-26, 2-(difluoromethyl)-N7-(2-methoxy-3-(1-methyl-1H-pyrazol-3-yl)phenyl)-N5-(6-methylpyridazin-3-yl)-3H-imidazo[4,5-b]pyridine-5,7-diamine] as the compound, how does the pKd read?
Its pKd is 9.30 to 10.00.

`COc1c(Nc2cc(Nc3cncc(C#N)n3)nc3[nH]c(C(F)F)nc23)cccc1-c1ccn(C)n1` [I-27, 6-((2-(difluoromethyl)-7-((2-methoxy-3-(1-methyl-1H-pyrazol-3-yl)phenyl)amino)-3H-imidazo[4,5-b]pyridin-5-yl)amino)pyrazine-2-carbonitrile] was tested. Which pKd did it give?
The pKd was 8.00 to 9.00.

With `COc1ccccc1Nc1cc(NC(=O)C2CC2)nc2[nH]c(C(F)F)nc12` [I-28, N-(2-(difluoromethyl)-7-((2-methoxyphenyl)amino)-3H-imidazo[4,5-b]pyridin-5-yl)cyclopropanecarboxamide] as the compound, how does the pKd read?
Its pKd is under 8.00.

`COc1c(C#N)cccc1Nc1cc(NC(=O)C2CC2)nc2[nH]c(C(F)F)nc12` [I-29, N-(7-((3-cyano-2-methoxyphenyl)amino)-2-(difluoromethyl)-3H-imidazo[4,5-b]pyridin-5-yl)cyclopropanecarboxamide] was tested. Which pKd did it give?
The pKd was under 8.00.

`COc1c(Nc2cc(Nc3cncc(C#N)n3)nc3[nH]c(C(F)F)nc23)cccc1-c1nnn(C)n1` [I-30, 6-((2-(difluoromethyl)-7-((2-methoxy-3-(2-methyl-2H-tetrazol-5-yl)phenyl)amino)-3H-imidazo[4,5-b]pyridin-5-yl)amino)pyrazine-2-carbonitrile] was tested. Which pKd did it give?
Its pKd is 8.00 to 9.00.

With `COc1c(Nc2cc(Nc3ccc(N4CCC4)cn3)nc3[nH]c(C(F)F)nc23)cccc1-c1ccn(C)n1` [I-31, N5-(5-(azetidin-1-yl)pyridin-2-yl)-2-(difluoromethyl)-N7-(2-methoxy-3-(1-methyl-1H-pyrazol-3-yl)phenyl)-3H-imidazo[4,5-b]pyridine-5,7-diamine] as the compound, how does the pKd read?
Its pKd is 8.00 to 9.00.

How did the pKd turn out when `COc1c(Nc2cc(Nc3cc(C)cc(C#N)n3)nc3[nH]c(C(F)F)nc23)cccc1-c1nnn(C)n1` [I-32, 6-((2-(difluoromethyl)-7-((2-methoxy-3-(2-methyl-2H-tetrazol-5-yl)phenyl)amino)-3H-imidazo[4,5-b]pyridin-5-yl)amino)-4-methylpicolinonitrile] was run?
The pKd was 9.00 to 9.30.

`COc1c(Nc2cc(Nc3cc(C)cc(C#N)n3)nc3[nH]c(C(F)F)nc23)cccc1-c1ccn(C)n1` [I-33, 6-((2-(difluoromethyl)-7-((2-methoxy-3-(1-methyl-1H-pyrazol-3-yl)phenyl)amino)-3H-imidazo[4,5-b]pyridin-5-yl)amino)-4-methylpicolinonitrile] was tested. Which pKd did it give?
Its pKd is 9.00 to 9.30.

`COc1c(Nc2cc(NC(=O)C3CC3)nc3[nH]c(C(F)F)nc23)cccc1-c1cnn(C)c1` [I-34, N-(2-(difluoromethyl)-7-((2-methoxy-3-(1-methyl-1H-pyrazol-4-yl)phenyl)amino)-3H-imidazo[4,5-b]pyridin-5-yl)cyclopropanecarboxamide] was tested. Which pKd did it give?
Its pKd is under 8.00.

With `COc1cc(C(=O)N2CCCC2)ccc1Nc1cc(NC(=O)C2CC2)nc2[nH]c(C(F)F)nc12` [I-35, N-(2-(difluoromethyl)-7-((2-methoxy-4-(pyrrolidine-1-carbonyl)phenyl)amino)-3H-imidazo[4,5-b]pyridin-5-yl)cyclopropanecarboxamide] as the compound, how does the pKd read?
Its pKd is 8.00 to 9.00.

How did the pKd turn out when `COc1c(Nc2cc(Nc3ccc(C(=O)N4CCCC4)c(C(F)(F)F)n3)nc3[nH]c(C(F)F)nc23)cccc1-c1nnn(C)n1` [I-36, (6-((2-(difluoromethyl)-7-((2-methoxy-3-(2-methyl-2H-tetrazol-5-yl)phenyl)amino)-3H-imidazo[4,5-b]pyridin-5-yl)amino)-2-(trifluoromethyl)pyridin-3-yl)(pyrrolidin-1-yl)methanone] was run?
The pKd was 9.30 to 10.00.

How did the pKd turn out when `COc1c(Nc2cc(Nc3ccc(N4CCCC4=O)c(C#N)n3)nc3[nH]c(C(F)F)nc23)cccc1-c1nnn(C)n1` [I-37, 6-((2-(difluoromethyl)-7-((2-methoxy-3-(2-methyl-2H-tetrazol-5-yl)phenyl)amino)-3H-imidazo[4,5-b]pyridin-5-yl)amino)-3-(2-oxopyrrolidin-1-yl)picolinonitrile] was run?
The pKd was 9.30 to 10.00.
